Values after ≈ are worked out from the molar mass of the structure shown. Where two headings read alike, the source gives them in different places.
Key:
[1] = in vivo; cited from earlier work
[2] = Drug recovery, degradation and binding to nasal sheep mucosa; format: in vitro ADME; settings: sheep nasal mucosa (excised tissue) in buffer, 37° C., read-out: % recovery in the presence of nasal sheep mucosa
Protocol: (i) Drug recovery, degradation and binding to nasal sheep mucosa: The effect of drug recovery, degradation and binding to sheep nasal mucosa was determined. Briefly, a known surface area (approx. 1 cm^2) of sheep nasal mucosa was added into a glass vial containing a known concentration (10 μg/mL) of each drug prepared in the receiver fluid (10% ethanol in pH 6 buffer). The content of the vial was allowed to equilibrate at 37° C. over a period of 48 h. At 24 h intervals, a sample was removed and assayed via HPLC. The percentage of drug recovered was calculated using Equation 4: % drug recovered=(drug concentration at t=Y/drug concentration at t=Z)×100 (Equation 4)
where, Y=specific time point at 37° C. (in the presence of nasal sheep mucosa); and Z=specific time point at 37° C. (in the absence of nasal sheep mucosa).
In addition to the stability against heat degradation, the effect of drug binding or degradation in the presence of nasal sheep mucosa was also determined (Table 6).

[3] = Solubility of benzodiazepines in DEGEE (Transcutol) at 25° C. and −16° C.; settings: organic solvent or mixture, thermodynamic from solid
Protocol: The solubilities of several other benzodiazepines were measured in DEGEE (diethylene glycol monoethyl ether, transcutol) by the techniques of Example 1. Initially, 10 mg of the drug was loaded in the glass vial and 130-μL of DEGEE was added, and the samples were sonicated for 10 minutes. […] Samples were stored at −16° C. and 25° C. overnight, and centrifuged (5000 rpm, 2 minutes, −10° C. and 23° C. for the −16° C. and 25° C. samples, respectively). […] Clonazepam was measured by UV at 350 nm; all others at 300 nm.

[4] = Saturated solubility in receiver fluid systems (HPLC); settings: 37 °C, thermodynamic from solid
Protocol: Following the stability studies, a suitable receiver fluid was developed in order to ensure that sink conditions for tested drug were such that the drug release was limited by the solubility of the drug in the receiver fluid. […] Briefly, drug was saturated into different receiver fluid systems by adding excess drug and allowed to stir with a magnetic flea over a period of 2 h at 37° C. Each saturated solution was then filtered using a 0.2 μm syringe filter and the resultant solution was assayed via HPLC.
Calibration curves for clonazepam were constructed between 0.2 to 10 μg/mL with appropriate replicates to ensure repeatability and linearity.
Standards were prepared in receiver fluid (10% ethanol in buffer 6). […] The filtration at room temperature was performed as quickly as possible to minimize any drug precipitation as the temperature dropped from 37° C. during filtration.

[5] = Effect of temperature on viscosity (Gilmont falling ball viscometer); format: physicochemical
Protocol: As weather may dictate substantially different conditions of use, the effect of temperature on viscosity was determined. A Gilmont falling ball viscometer was filled with diethylene glycol monoethyl ether and calibrated for several hours at each temperature. At −17° C., 8° C., 23° C. and 40° C. the measured viscosity was 6.6 cP, 5.4 cP, 3.8 cP and 3.1 cP, respectively.

[6] = Human pharmacokinetic study (oral, intravenous, intranasal cross-over); settings: after 1 mg clonazepam
Protocol: The human pharmacokinetics, safety, and tolerability of the benzodiazepines compositions of the present invention formulated for intranasal delivery for therapeutic applications are evaluated using standard clinical procedures. Benzodiazepine compositions formulated for intranasal delivery are provided, for example, for application by the participants to intranasal mucosa.
A primary objective of initial studies in humans is to determine and compare pharmacokinetic profiles of three dosage forms of a benzodiazepine: oral, i.v., and intranasal, following single administration. An example of such a study in humans is a cross-over study performed in 12 healthy male volunteers. Plasma and urine level of clonazepam and 7-amino-clonazepam are determined, for example, using HPLC and UV detection. […] Further the initial studies in humans are used to determine local tolerability of intranasal formulation using questionnaire and the Visual Analog Scale (VAS). VAS is a validated instrument that has been used in numerous studies to quantify subjective […]. In addition, cognitive, sleepiness and mood effects are evaluated using questionnaires and scales (see, e.g., Example 10 below). Further, attention and vigilance may be evaluated using, for example, LEEDS Psychomotor Multiple Choice Reaction Time (MCRT) testing.
A human pharmacokinetic study was carried out as described in Example 8.
15 young, healthy male volunteers received a single dose of 1 mg clonazepam by oral, intravenous and intranasal routes in a three-period cross-over design.

[7] = Spray pattern of solvent matrices (plume area, spray angle, Dmax/Dmin); format: physicochemical; settings: 100 μL from Pfeiffer unit-dose device, paper 3 cm above nozzle, 20-25° C.
Protocol: (§1) Fourteen representative solvent matrices used for clonazepam formulations were tested for spray pattern and compared with water. The solvent mixtures were made up, spiked with minute amounts of Coomassie Brilliant Blue Dye and 100 μL were subsequently filled into Pfeiffer unit-dose devices (Pfeiffer of America, Princeton, N.J.). To measure the spray pattern, the devices were actuated below a sheet of paper that was located 3 cm above the spray nozzle. All measurements were made at ambient room temperature (20-25° C.). The smallest (Dmin) and the largest (Dmax) diameter of the blue pattern formed on the sheet of paper were measured and the results used to calculate the Dmax/Dmin ratio, the area of the pattern and the average spray angle. The plume area at 3 cm was calculated using the equation for the area of an ellipse using the half of the two diameters as the ellipse radii. Viscosity of all formulations was measured using Brookfield DV-I viscometer (Brookfield Engineering Laboratories, Inc., Middleboro, Mass.).

[8] = Viscosity of solvent matrices (Brookfield DV-I viscometer); format: physicochemical; settings: solvent matrix without drug
Protocol: as §1

For `O=C1Nc2ccc(Cl)cc2C(c2ccccc2Cl)=NC1O` (stereo not shown) [Lorazepam], the half-life [1] is given as 8 to 24 h, the “roughly equal dose (potency equivalence)” value [1] is given as about 1.0 mg and the recovery at 24 h, 10 μg/mL ([2]; buffer pH 5 (10% ethanol)) is given as 96.9%. It also gave a recovery at 48 h, 10 μg/mL ([2]; buffer pH 5 (10% ethanol)) of 94.9%, a recovery at 24 h, 10 μg/mL ([2]; buffer pH 6 (10% ethanol)) of 96.8% and a recovery at 48 h, 10 μg/mL ([2]; buffer pH 6 (10% ethanol)) of 97%. It also gave a recovery at 24 h, 10 μg/mL ([2]; buffer pH 7 (10% ethanol)) of 96.2%, a recovery at 48 h, 10 μg/mL ([2]; buffer pH 7 (10% ethanol)) of 91.7% and a solubility ([3]; 25 °C) of over 110000 µg/mL. It also gave a solubility ([3]; -16 °C) of over 130000 µg/mL, a solubility at 2 h ([4]; pH 6, aqueous buffer, buffer pH 6, 37° C.) of 78.5 µg/mL (≈ 244 µM) and a solubility at 2 h ([4]; pH 6, aqueous with cosolvent or surfactant or cyclodextrin, 20% ethanol in buffer pH6, 37° C.) of 309 µg/mL (≈ 962 µM). It also gave a solubility at 2 h ([4]; pH 6, aqueous with cosolvent or surfactant or cyclodextrin, receiver solution, 10% ethanol in buffer pH 6, 37° C.) of 126 µg/mL (≈ 392 µM).

For `CN1C(=O)CN=C(c2ccccc2)c2cc(Cl)ccc21` [Diazepam], the “roughly equal dose (potency equivalence)” value [1] is given as about 5.0 mg, the recovery at 24 h, 10 μg/mL ([2]; buffer pH 5 (10% ethanol)) is given as 97.6% and the recovery at 48 h, 10 μg/mL ([2]; buffer pH 5 (10% ethanol)) is given as 95.6%. The recovery at 24 h, 10 μg/mL ([2]; buffer pH 6 (10% ethanol)) was 98%, the recovery at 48 h, 10 μg/mL ([2]; buffer pH 6 (10% ethanol)) was 125% and the recovery at 24 h, 10 μg/mL ([2]; buffer pH 7 (10% ethanol)) was 97.6%. The recovery at 48 h, 10 μg/mL ([2]; buffer pH 7 (10% ethanol)) was 94.7%.

In the case of `CCOCCOCCO` [diethylene glycol monoethyl ether], the viscosity ([5]; 8° C.) is reported as 5.4 cP, the viscosity ([5]; 23° C.) is reported as 3.8 cP and the viscosity ([5]; 40° C.) is reported as 3.1 cP. It also gave a viscosity ([5]; −17° C.) of 6.6 cP.

For `Nc1ccc2c(c1)C(c1ccccc1Cl)=NCC(=O)N2` [7-Amino-clonazepam], the “mean AUCt of metabolite” value ([6]; intranasal) was 16.9 ng·h/mL, the “mean Cmax of metabolite” value ([6]; intranasal) was 1.17 ng/mL and the “mean AUCt of metabolite” value ([6]; intravenous) was “approximately 30 ng·h/mL”. The “mean Cmax of metabolite” value ([6]; intravenous) was “approximately 2 ng/mL”, the “mean AUCt of metabolite” value ([6]; oral) was “approximately 30 ng·h/mL” and the “mean Cmax of metabolite” value ([6]; oral) was “approximately 2 ng/mL”.

In the case of `O` [Water], the “Ratio Dmax/Dmin” value [7] is reported as 1.10, the Spray angle ([7]; average angle calculated from diameters) is reported as 73.1 ° and the “Plume area at 3 cm” value ([7]; ellipse area from Dmax and Dmin) is reported as 15.52 cm^2. It also gave an Avg. viscosity [8] of 1.0 cP.

— patent publication US8609651B2, “Pharmaceutical compositions of benzodiazepines and method of use thereof” (Jazz Pharmaceuticals, Inc., priority 2006, dated 2013)
